Target: T1, human serum albumin (HSA) (Homo sapiens, UniProt P02768)
T1 construct: gene ALB
Assay: intrinsic fluorescence quenching, modified Stern-Volmer
Format: binding
Conditions: 298 K, pH 7.4, 0.1 M Tris, 0.1 M NaCl, 1 µM HSA, ex 280 / em 337 nm; site II (subdomain IIIA), no site marker
Source text: intrinsic fluorescence quenching, modified Stern-Volmer on human serum albumin (HSA)

T1 sequence (P02768 25-609): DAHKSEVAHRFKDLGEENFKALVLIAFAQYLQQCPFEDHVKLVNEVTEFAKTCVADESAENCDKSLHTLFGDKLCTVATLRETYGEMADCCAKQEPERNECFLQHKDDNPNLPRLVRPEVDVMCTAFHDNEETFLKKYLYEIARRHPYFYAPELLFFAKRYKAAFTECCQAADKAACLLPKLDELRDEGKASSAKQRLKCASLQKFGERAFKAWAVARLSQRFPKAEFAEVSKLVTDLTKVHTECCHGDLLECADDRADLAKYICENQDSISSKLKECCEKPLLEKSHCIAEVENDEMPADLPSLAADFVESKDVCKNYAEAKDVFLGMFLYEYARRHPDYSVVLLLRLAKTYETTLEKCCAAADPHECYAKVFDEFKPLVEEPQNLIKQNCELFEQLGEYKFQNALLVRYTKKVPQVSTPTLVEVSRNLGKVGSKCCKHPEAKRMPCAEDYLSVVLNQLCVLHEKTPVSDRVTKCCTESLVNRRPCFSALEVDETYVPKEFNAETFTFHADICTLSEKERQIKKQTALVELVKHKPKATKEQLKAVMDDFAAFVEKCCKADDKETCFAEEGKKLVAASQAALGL

Structure (SMILES) | Ka (×10^4 M^-1)
CC(C)(C)CC(=O)N1c2ccc(Cl)cc2C(=O)N(N=Cc2ccc(F)cc2)C1c1ccc(F)cc1 (centres unmarked) [3b, 3-(4-Fluorobenzylideneamino)-6-chloro-1-(3,3-dimethylbutanoyl)-2-(4-fluorophenyl)-2,3-dihydroquinazolin-4 (1H)-one] | 2.64 ×10^4 M^−1
CC(C)(C)CC(=O)N1c2ccc(Cl)cc2C(=O)N(N=Cc2ccc(Cl)cc2)C1c1ccc(Cl)cc1 (centres unmarked) [3c, 3-(4-Chlorobenzylideneamino)-6-chloro-1-(3,3-dimethylbutanoyl)-2-(4-chlorophenyl)-2,3-dihydroquinazolin-4(1H)-one] | 3.44 ×10^4 M^−1
CC(C)(C)CC(=O)N1c2ccc(Cl)cc2C(=O)N(N=Cc2ccc(Br)cc2)C1c1ccc(Br)cc1 (centres unmarked) [3d, 3-(4-Bromobenzylideneamino)-6-chloro-1-(3,3-dimethylbutanoyl)-2-(4-bromophenyl)-2,3-dihydroquinazolin-4(1H)-one] | 4.37 ×10^4 M^−1

Now from value to compound:

Ka (×10^4 M^-1) | Structure (SMILES)
2.16 ×10^4 M^−1 | CC(C)(C)CC(=O)N1c2ccc(Cl)cc2C(=O)N(N=Cc2ccccc2)C1c1ccccc1 (centres unmarked) [3a, 3-(Benzylideneamino)-6-chloro-1-(3,3-dimethylbutanoyl)-2-phenyl-2,3-dihydroquinazolin-4(1H)-one]
7.21 ×10^4 M^−1 | CC(C)(C)CC(=O)N1c2ccc(Cl)cc2C(=O)N(N=Cc2ccc(I)cc2)C1c1ccc(I)cc1 (centres unmarked) [3e, 3-(4-Iodobenzylideneamino)-6-chloro-1-(3,3-dimethylbutanoyl)-2-(4-iodophenyl)-2,3-dihydroquinazolin-4(1H)-one]

— PMC6268991, “Impact of Halogen Substituents on Interactions between 2-Phenyl-2,3-dihydroqulinazolin-4(1H)-one Derivatives and Human Serum Albumin” (Molecules, 2012)
